Measured values: patent US12043614B2, “Salts of a Pim kinase inhibitor” (Incyte Corporation, priority 2015, dated 2024)
Counter-ions that a name gives are not always drawn.

Tests used:
[1] = biological target: PIM kinase; assay: Pim enzyme assays (isoform not given); assay type: biochemical; settings: 1 mM ATP; Pim isoform not stated
[2] = Competitive stability study (slurry of Forms I-VI, XRPD); assay type: physicochemical; settings: 2 days, room temperature
Method: To evaluate the transformation of Compound 1 phosphate solid forms, competitive slurry experiments were performed as follows: to a saturated solution (1.5 mL) of Compound 1 phosphate Form I in the solvent as listed in Table 14 was added Form I (6 mg), followed by stirring to give a cloudy solution, then 6 mg each of Form II through Form VI were added to the mixture. The slurry was stirred for 2 days at room temperature and analyzed by XRPD.

[3] = tested on: KMS12BM cells; assay: Pim cell proliferation assay ([3H]-thymidine), KMS12BM; assay type: cell-based; settings: Homo sapiens, KMS-12-BM; read-out: IC50 Tumor cell proliferation (Ex. B, KMS12BM cells)
Method: (§1) KM[…] and MOLM16 cells were purchased from DSMZ (Germany) and were maintained according to the recommendations of suppliers. To measure the anti-proliferation activities of test compounds, the cells were plated in their respective culture medium (2×10^3 cells/200 μL/well) into 96-well ultralow binding plates (Corning), with or without test compound(s). After 3 to 4 days, [3H]-thymidine (1 μCi/well) (PerkinElmer) in PBS (10 μL) was then added to the cell culture for an additional 12 hours before the incorporated radioactivity was separated by filtration with water through GF/B filters (Packard Bioscience) and measured by liquid scintillation counting with a TopCount (Packard Bioscience).

[4] = tested on: MOLM16 cells; assay: Pim cell proliferation assay ([3H]-thymidine), MOLM16; assay type: cell-based; settings: read-out: IC50 Tumor cell proliferation (Ex. B, MOLM16 cells)
Method: as §1

[5] = tested on: pBAD in KMS12BM cells; assay: Pim pBAD signaling assay in KMS12BM cells; assay type: cell-based; settings: Homo sapiens, KMS-12-BM, 2.5 hours, read-out: IC50 pBAD KMS12BM cells (Ex. B)
[6] = tested on: pBAD in MOLM-16 cell; assay: pBAD signaling assay in human whole blood, MOLM16 cells; assay type: cell-based; settings: read-out: IC50 pBAD whole blood (Ex. B, MOLM16 cells)
[7] = biological target: T1, Pim-1 (Homo sapiens, UniProt P11309); assay: Pim-1 kinase assay; assay type: biochemical; settings: 1 mM ATP; read-out: IC50 PIM1 Enzyme (Ex. A)
T1 construct: purchased Invitrogen PV3503
T1 sequence (P11309 whole entry): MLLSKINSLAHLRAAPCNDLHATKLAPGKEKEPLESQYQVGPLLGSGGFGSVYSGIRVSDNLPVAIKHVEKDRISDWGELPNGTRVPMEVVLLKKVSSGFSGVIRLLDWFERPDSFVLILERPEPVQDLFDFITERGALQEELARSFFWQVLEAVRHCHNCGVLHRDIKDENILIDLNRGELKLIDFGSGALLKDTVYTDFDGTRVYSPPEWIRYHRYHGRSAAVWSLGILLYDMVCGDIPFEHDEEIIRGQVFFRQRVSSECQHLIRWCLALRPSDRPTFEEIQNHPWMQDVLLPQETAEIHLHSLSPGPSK
Method: Pim-1 and Pim-3 kinase assays—20 μL reactions can be run in white 384 well polystyrene plates dotted with 0.8 μL compound/DMSO in the assay buffer (50 mM Tris, pH 7.5, 0.01% Tween-20, 5 mM MgCl2, 0.01% BSA, 5 mM DTT), containing 0.05 μM Biotin-labeled BAD peptide substrate (AnaSpec 62269), 1 mM ATP, and 2.5 pM (Pim-1, Invitrogen PV3503) or 1.25 pM (Pim-3, Millipore 14-738) enzyme for 1 h at 25° C. Reactions are stopped by addition of 10 μL STOP Buffer (150 mM Tris, pH=7.5, 150 mM NaCl, 75 mM EDTA, 0.01% Tween-20, 0.3% BSA) supplemented with Phospho-Bad (Ser112) Antibody (Cell Signaling 9291) diluted 666-fold, and Streptavidin donor beads (PerkinElmer 6760002) along with Protein-A acceptor beads (PerkinElmer 6760137) at 15 μg/mL each. Supplementation of the STOP buffer with beads and stopping the reactions are done under reduced light. Prior to the stopping reactions STOP buffer with beads is pre-incubated for 1 h in the dark at room temperature. After stopping the reactions, plates are incubated for 1 h in the dark at room temperature before reading on a PHERAstar FS plate reader (BMG Labtech) under reduced light.

[8] = tested on: pBAD in KMS12BM cells; assay: pBAD signaling assay in human whole blood, KMS12BM cells; assay type: cell-based; settings: KMS-12-BM, read-out: IC50 pBAD whole blood (Ex. B, KMS12BM cells)
[9] = biological target: T2, Pim-2 (Homo sapiens, UniProt Q9P1W9); assay: Pim-2 kinase assay; assay type: biochemical; settings: 1 mM ATP; read-out: IC50 PIM2 Enzyme (Ex. A)
T2 construct: purchased Invitrogen PV3649
T2 sequence (Q9P1W9 whole entry): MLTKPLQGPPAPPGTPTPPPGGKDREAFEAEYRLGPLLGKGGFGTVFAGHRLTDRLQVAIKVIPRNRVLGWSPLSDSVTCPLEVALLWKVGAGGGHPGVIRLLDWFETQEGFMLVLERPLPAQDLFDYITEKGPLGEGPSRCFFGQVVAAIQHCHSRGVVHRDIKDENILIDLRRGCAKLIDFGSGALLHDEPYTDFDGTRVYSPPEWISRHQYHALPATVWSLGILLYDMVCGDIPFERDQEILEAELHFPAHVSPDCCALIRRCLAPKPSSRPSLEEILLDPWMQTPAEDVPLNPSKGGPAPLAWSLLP
Method: Pim-2 kinase assay—20 μL reactions are run in white 384 well polystyrene plates dotted with 0.8 μL compound/DMSO in the assay buffer (50 mM Tris, pH 7.5, 0.01% Tween-20, 5 mM MgCl2, 0.01% BSA, 5 mM DTT), containing 0.05 μM Fluorescein-labeled CREBtide peptide substrate (Invitrogen PV3508), 1 mM ATP, and 1 nM enzyme (Invitrogen PV3649) for 2 h at 25° C. Reactions are stopped by addition of 10 μL TR-FRET Dilution Buffer (Invitrogen PV3574) with 30 mM EDTA and 1.5 nM LanthaScreen Tb-CREB pSer133 antibody (Invitrogen PV3566). After 30 min. incubation at room temperature, plates are read on a PHERAstar FS plate reader (BMG Labtech).

[10] = biological target: Pim-3 (Homo sapiens, UniProt Q86V86); assay: Pim-3 kinase assay; assay type: biochemical; settings: 1 mM ATP; read-out: IC50 PIM3 Enzyme (Ex. A)
[11] = Stability study under phase equilibration conditions (XRPD); assay type: physicochemical; settings: 2-3 days, all solvents and solvent mixtures tested
Method: Phase equilibration studies were designed to provide information on a predominant crystal form for phase identification. Compound 1 phosphoric acid salt (Form I) was equilibrated in a representative group of solvents at 25±1° C. (chloroform, DMF, 1,4-dioxane, methanol and methanol/20% water, 2-methoxyethanol and 2-methoxyethanol/20% water, MIBK, THF and THF/20% water, acetone, n-BuOH and n-BuOH/20% water, EtOH and EtOH/20% water, isobutyl acetate, 1-propanol and 1-propanol/20% water, isopropanol, water, and MEK) and 50±1° C. (chloroform, DMF, 1,4-dioxane, methanol and methanol/20% water, 2-methoxyethanol and 2-methoxyethanol/20% water, MIBK, THF and THF/20% water, acetone, n-BuOH and n-BuOH/20% water, EtOH and EtOH/20% water, EtOAc, ethyl formate, 1-propanol and 1-propanol/20% water, isopropanol, IPA/MeOH/Water (1.73/0.79/0.08), IPA/water (3/2), water) controlled by IKA® ETS-D5 temperature controller and IKA® RCT basic safety control.
To 3 mL of a solvent or a mixture of solvents (chosen from a list for the respective temperature) was added Compound 1 phosphate (Form I) until a cloudy solution was obtained, then, about 30 mg of Compound 1 phosphate (Form I) was added to the cloudy solution. The mixture was stirred at 25±1° C. or 50±1° C., respectively, for 2-3 days. The solid was filtered and analyzed by XRPD. […]

[12] = Stability study of Form I under environmental conditions (XRPD); assay type: physicochemical
Excerpt: Compound 1 phosphoric acid salt Form I was subjected to various different environmental conditions to assess stability.

C[C@H]1CN(c2c(NC(=O)c3ccc(F)c(-c4c(F)cccc4F)n3)cnc3c2CC[C@H]3O)C[C@@H](N)[C@@H]1O [Compound 1, N-{(7R)-4-[(3R,4R,5S)-3-amino-4-hydroxy-5-methylpiperidin-1-yl]-7-hydroxy-6,7-dihydro-5H-cyclopenta[b]pyridin-3-yl}-6-(2,6-difluorophenyl)-5-fluoropyridine-2-carboxamide]
IC50 [1]: < 100 nM

C[C@H]1CN(c2c(NC(=O)c3ccc(F)c(-c4c(F)cccc4F)n3)cnc3c2CC[C@H]3O)C[C@@H](N)[C@@H]1O [Compound 1 H3PO4 salt, N-{(7R)-4-[(3R,4R,5S)-3-amino-4-hydroxy-5-methylpiperidin-1-yl]-7-hydroxy-6,7-dihydro-5H-cyclopenta[b]pyridin-3-yl}-6-(2,6-difluorophenyl)-5-fluoropyridine-2-carboxamide phosphoric acid salt]
Solid state form ([2]; IPA/MeOH/water/DMSO (56.6/28.3/3.0/12.1)): Form I | Solid state form ([2]; IPA/MeOH/water/DMSO (61.8/28.2/2.9/7.1)): Form I

C[C@H]1CN(c2c(NC(=O)c3ccc(F)c(-c4c(F)cccc4F)n3)cnc3c2CC[C@H]3O)C[C@@H](N)[C@@H]1O [Compound 1 di-HCl salt, N-{(7R)-4-[(3R,4R,5S)-3-amino-4-hydroxy-5-methylpiperidin-1-yl]-7-hydroxy-6,7-dihydro-5H-cyclopenta[b]pyridin-3-yl}-6-(2,6-difluorophenyl)-5-fluoropyridine-2-carboxamide dihydrochloride]
IC50 [3]: < 100 nM | IC50 [4]: < 35 nM | IC50 [5]: < 35 nM | IC50 [6]: < 100 nM | IC50 [7]: < 35 nM | IC50 [8]: < 200 nM | IC50 [9]: < 35 nM | IC50 [10]: < 35 nM

C[C@H]1CN(c2c(NC(=O)c3ccc(F)c(-c4c(F)cccc4F)n3)cnc3c2CC[C@H]3O)C[C@@H](N)[C@@H]1O [Compound 1 phosphoric acid salt Form I, N-{(7R)-4-[(3R,4R,5S)-3-amino-4-hydroxy-5-methylpiperidin-1-yl]-7-hydroxy-6,7-dihydro-5H-cyclopenta[b]pyridin-3-yl}-6-(2,6-difluorophenyl)-5-fluoropyridine-2-carboxamide phosphoric acid salt]
Solid form after phase equilibration (XRPD) ([11]; 25±1° C.): Form I | Solid form after phase equilibration (XRPD) ([11]; 50±1° C.): Form I | Crystalline Form (XRPD) ([12]; 40° C./75% RH for 1 week): Form I | Crystalline Form (XRPD) ([12]; 50° C. vacuum dry for 1 day): Form I | Crystalline Form (XRPD) ([12]; 100° C. vacuum dry for 1 day): Form I | Crystalline Form (XRPD) ([12]; 210° C. vacuum dry followed by 40° C./75% RH for 4 weeks): Form I | Crystalline Form (XRPD) ([12]; 210° C. vacuum dry for 20 min): Not Form I | Crystalline Form (XRPD) ([12]; Suspension in 0.5% methyl cellulose in water): Form I
